Source: paper PMC10510102, “Efficient Ligand Discovery Using Sulfur(VI) Fluoride Reactive Fragments” (ACS Chemical Biology, 2023)

Biological target: BCL6 BTB/POZ domain (Homo sapiens, UniProt P41182, C67R/C84N/C8Q)
Test: Cocrystal structure with BCL6 BTB/POZ dimer
Set-up: hBCL6-Flag 3Cmut (5-129) produced in house; FLAG (C); made in house
Details: via a sulfonate ester
Source text: Crystal structures of SFs 2f and 2s within BCL6 were generated to further investigate the binding mode of the fragments; this used a previously published protocol.[42] […] The twisted conformation of 2s could also represent a premodified state of the protein–SF complex, which may have become disrupted for 2f upon covalent modification with Tyr57 to afford the extended conformation observed.
The fluorescence intensity data from the individual replicates of each sample type were normalized and identically truncated within GraphPad Prism 5.0.4.11 These values were subsequently fitted to equation (4) corresponding to a Boltzmann sigmoid in order to obtain the melting temperature (“V50”; T m) of the protein:
Y=BOTTOM+((TOP+BOTTOM)/(1+exp((V50–X)/SLOPE))) (4)
The three obtained T m values were averaged to give a final T m value in each case. The normalized fluorescence data for the three replicates of each sample were averaged to yield a single dataset for each case, which were then plotted in GraphPad Prism 5.0.4 to give the plots shown in the manuscript.11
Table S9. Thermal melting temperatures of unmodified and covalently modified BCL6 BTB/POZ domain as determined by differential scanning fluorimetry measurements.
The arithmetic mean and standard deviation from three replicates are shown.
Hit Chemotype Protein Species Tm / °C ΔT m / °C […]

CN(C)C(=O)Nc1cccc(CNC(=O)Cc2ccc(S(=O)(=O)F)cc2)c1 [2f]
residue covalently conjugated in cocrystal structure: Tyr57
